Reference: US12285404B2, “Prevention of rosacea inflammation” (The Regents of the University of California, priority 2013, dated 2025)

Experiments:
[1] = tested on: protease that cleaves full length cathelicidin; settings: cited from earlier work
WT mice = assay: MC stabilizer experiment: cromolyn sodium I.P. pretreatment before Cath LL-37 challenge (rosacea mouse model); format: in vivo
Description: WT mice were injected I.P. with vehicle or cromolyn sodium (10 mg/kg, per day) for 4 days. 24 hours after the last injection, the mice were injected intradermally with 50 μl of […] Cath LL-37 or PBS, twice a day for 2 days. Skin biopsies were taken after 72 hours of observation and (a) Mmp-9 and Cxcl2 mRNA expressions were assessed by RT-PCR, (b) MMP-9 activity was assessed by measuring cleavage of a MMP fluorogenic substrate with specific inhibitors, and (c) immunohistochemistry was performed on frozen skin sections using antibodies against MMP-9 and FcεRI. DAPI stain was also used, as indicated. Statistics: one-way and two-way ANOVA **p<0.01 (n=3).
Mast cell deficient (C57BL/6-KitWsh^−/−) mice were bred. KitWsh^−/− mice bearing the W-sash (Wsh) inversion mutation have MC deficiency, but lack anemia and sterility. […] Wild type mice (C57BL/6) were utilized as control. Mice were shaved 24 hrs before intradermal injection with 50 μl of 50 μM or 320 μM of Cath LL-37 or filtered PBS (n=3), twice a day for 2 days and skin biopsies were taken after 72 hours of observation. Total RNA was extracted and purified by RNeasy Mini Kit (QIAGEN science). For the time course observation, skin biopsies of WT and MC deficient mice were taken at 1, 4, and 24 hrs after Cath LL-37 injection.
For the MC stabilizer experiment: Cromolyn sodium (0.3 mg/mouse/day) (Sigma-Aldrich, St Louis, MO) in PBS was injected I.P. into WT mice for 4 days.
Total-MMP activities were determined by following previously reported study (Kanada et al., 2012). To determine MMP-9 activity, MMP-9 specific inhibitor I (Thermo Fisher Scientific, Chicago, IL) was used.
cDNA was synthesized from RNA using the iScript cDNA Synthesis Kit (BioRad, Hercules, CA) according to the manufacturer's protocol. cDNA was normalized using a NanoDrop spectrophotometer (Thermo Fisher Scientific Inc.). Probes from TagMan Gene Expression Assays (Applied Biosystems ABI, Foster City, CA) were used to analyze gene expressions with following to the manufacturer's instructions. Gapdh mRNA was used as an internal control to validate RNA for each sample. mRNA expression was calculated as the relative expression to Gapdh mRNA, and all data are presented as fold change of each control.
Fluorescence immunohistochemistry. Mouse skin frozen sections were fixed with acetone, washed in 1×PBS, blocked with 5% goat serum/1% BSA for 30 minutes, and incubated with anti-MMP-9 polyclonal antibody (ABBIOTEC, San Diego, CA). For FcERI detection, anti-mouse FcERI PE (eBioscience, San Diego, CA) was used. Images were obtained using a Zeiss LSM510 laser scanning confocal microscope coupled with an Axiovert 100 inverted stage microscope.
According to the obtained results, MC proteases and MMP-9, which are released from MCs upon stimulation by Cath LL-37, are central in promoting rosacea-like skin inflammation. […] To test this hypothesis, cromolyn sodium, a very well-known MC stabilizer, was injected I.P. into WT mice (10 mg/kg, per day) every day for 4 days before Cath LL-37 challenge. 24 hours after the last cromolyn sodium injection, mice were injected with 50 μl of […] Cath LL-37 or PBS, twice a day for 2 days. […] In addition, frozen skin sections were stained with anti-MMP-9 and anti-FIERI antibodies for the detection of MCs.

[2] = tested on: erythematotelangiectatic rosacea subjects; assay: Topical 4% cromolyn sodium vs placebo in erythematotelangiectatic rosacea subjects, clinical evaluation and tape strips; format: in vivo, human
Description: (a, b) NHEK cells were co-cultured with 100 μl of supernatant of human cord blood-derived MCs after degranulation by 48/80, or serine buffer. (a) After 24 hrs of co-culture, NHEK cells were washed well and MMP and KLK activities in the cells were obtained, and (b) For the comparison of Cath LL-37 mRNA expression in NHEK cells, 100 nM of 1,25(OH)2VD3 was added to same co-culture. (c) 10 erythematotelangiectatic rosacea subjects were randomized to apply a solution containing either the MC stabilizer (4% cromolyn sodium) (n=5) or placebo (n=5) topically. Tape strips were obtained at the first visit (v1) and last visit (v4) and proteases and protein were separately extracted. Statistics: t-test ***p<0.001 (n=3), *p<0.05 (n=5).
2 mm skin biopsies were taken from the faces of healthy and rosacea subjects, as well as tape strips from the face of erythematotelangiectatic rosacea subjects in the dermatology clinic at the University of California, San Diego. All the procedures involving human subjects were approved by the University of California San Diego Institutional Review Board under the IRB number 071032. Ten randomized adults with erythematotelangiectatic rosacea were applied a water-based solution containing either 4% cromolyn sodium or placebo, topically to their face twice a day, for 8 weeks. A clinical evaluation was performed at each visit. A total six tape strips were obtained from right and left cheek at each of the first visit and the final visit.
To test whether the results were reproducible in humans, 10 randomized adults with erythematotelangiectatic rosacea were used to apply a solution containing either the MC stabilizer (4% cromolyn sodium) or placebo, topically to their face twice daily. Six tape strips were obtained from both right and left cheeks, at the time of first visit (v1) and last visit (v4). After eight week (v4), facial erythema levels decreased in the cromolyn treatment group. MMP, KLK activity and Cath LL-37 protein levels were decreased in the cromolyn treatment group with significant activity in MMP observed (FIG. 5c).

[3] = cromolyn pretreated, Cath LL-37 challenged WT mice, biopsies after 72 hours, p<0.01
[4] = 4% cromolyn sodium topically twice daily, v1 vs v4

| Compound | inhibition of the enzyme in vitro [1] | mast cell (MC) degranulation (WT mice; FIG. 4 legend, cromolyn sodium 10 mg/kg per day I.P. for 4 days, WT mice) | MMP-9 activity in the tissue (WT mice; cromolyn pretreated, Cath LL-37 challenged WT mice, MMP fluorogenic substrate with specific inhibitors, p<0.01) | Cxcl2 mRNA expression in skin (RT-PCR) (WT mice; [3]) | Mmp-9 mRNA expression in skin (RT-PCR) (WT mice; [3]) | skin inflammation (WT mice; cromolyn sodium I.P. 10 mg/kg per day for 4 days, then 50 μl of 320 μm Cath LL-37 intradermally twice a day for 2 days, WT mice) | facial erythema levels ([2]; 4% cromolyn sodium solution topically to face twice daily, after eight week (v4), n=5) | Cath LL-37 protein levels (tape strips) [2, 4] | KLK activity (tape strips) [2, 4] | MMP activity (tape strips) ([2]; 4% cromolyn sodium topically twice daily, v1 vs v4, significant, p<0.05 (n=5)) |
| --- | --- | --- | --- | --- | --- | --- | --- | --- | --- | --- |
| aprotinin | can inhibit this enzyme in vitro | – | – | – | – | – | – | – | – | – |
| NCCc1ccc(S(=O)(=O)F)cc1 [AEBSF, 4-(2-aminoethyl)-benzenesulfonylfluoride] | can inhibit this enzyme in vitro | – | – | – | – | – | – | – | – | – |
| O=C(O)c1cc(=O)c2c(OCC(O)COc3cccc4oc(C(=O)O)cc(=O)c34)cccc2o1 [cromolyn, cromolyn sodium] | – | prevents mast cell (MC) degranulation | dramatically decreased | significantly decreased | significantly decreased | did not develop | decreased | decreased | decreased | decreased |
